Test results as given in patent US10377743B2, “Inhibitors of RAS and methods of use thereof” (Araxes Pharma LLC, priority 2016, dated 2019).

Target: T1, KRAS G12C 1-169, his-tagged protein, GDP-loaded (Homo sapiens, UniProt P01116, G12C)
T1 construct: KRAS G12C 1-169, his-tagged protein, GDP-loaded
Test: Biochemical assay: covalent binding (modification %) to KRAS G12C by mass spectrometry
Details: 2 hour incubation period, 8 μM compound (compounds 21-92)
Protocol: Test compounds were prepared as 10 mM stock solutions in DMSO (Fisher cat# BP-231-100). KRAS G12C 1-169, his-tagged protein, GDP-loaded was diluted to 2 μM or 0.5 μM in buffer (20 mM Hepes, 150 mM NaCl, 1 mM MgCl2). Compounds were tested for activity as follows:
Compounds were diluted to 50× final test concentration in DMSO in 96-well storage plates. Compound stock solutions were vortexed before use and observed carefully for any sign of precipitation. Dilutions were as follow: • For 100 μM final compound concentration, compounds were diluted to 5000 μM (5 μL 10 mM compound stock+5 μL DMSO and mixed well by pipetting. • For 30 μM final compound concentration, compounds were diluted to 1500 μM (3 μL 10 mM compound stock+17 μL DMSO) and mixed well by pipetting. • For 10 μM final compound concentration, compounds were diluted to 500 μM (2 μL 10 mM compound stock+38 μL DMSO) and mixed well by pipetting. 49 μL of the stock protein solution was added to each well of a 96-well PCR plate (Fisher cat#1423027). 1 μl of the diluted 50× compounds were added to appropriate wells in the PCR plate using 12-channel pipettor. Reactions were mixed carefully and thoroughly by pipetting up/down with a 200 μL multi-channel pipettor. The plate was sealed well with aluminum plate seal, and stored in drawer at room temperature for 10 minutes, 30 minutes, 2 hours or 24 hours. 5 μL of 2% formic acid (Fisher cat# A117) in de-ionized H2O was then added to each well followed by mixing with a pipette. The plate was then resealed with aluminum seal and stored on dry ice until analyzed as described below.
The above described assays were analyzed by mass spectrometry according to one of the following two procedures:
The MS instrument is set to positive polarity, 2 GHz resolution, and low mass (1700) mode and allowed to equilibrate for 30 minutes. The instrument is then calibrated, switched to acquisition mode and the appropriate method loaded.
After another 30 minute equilibration time, a blank batch (i.e., buffer) is run to ensure equipment is operating properly. The samples are thawed at 37° C. for 10 minutes, briefly centrifuged, and transfer to the bench top. Wells A1 and H12 are spiked with 1 μL 500 μM internal standard peptide, and the plates centrifuged at 2000×g for 5 minutes. The method is then run and masses of each individual well recorded.
The masses (for which integration data is desired) for each well are pasted into the platemap and exported from the analysis. Masses for the internal standards are exported as well. The data at 50 ppm is extracted for the +19 charge state, and identity of well A1 is assigned using the internal standard spike and integrated. Peak data is exported as a TOF list and the above steps are repeated individually, for the +20, 21, 22, 23, 24, and 25 charge states.
The masses and peak intensities of KRAS G12C protein species were measured using a Dionex RSLCnano system (Thermo Scientific) connected to a Q Exactive Plus mass spectrometer (Thermo Scientific).
[…] of sample was each loaded onto a Aeris™ 3.6 μm WIDEPORE C4 200 Å, LC Column 50×2.1 mm column maintained at 40° C. at a flow rate of 600 μL/min with 20% Solvent A (0.1% formic acid in H2O) and 80% Solvent B (0.1% formic acid in acetonitrile). The liquid chromatography conditions were 20% solvent B for 1 minute, 20% to 60% solvent B for 1.5 minutes, 60% to 90% solvent for 0.5 minute, 90% solvent B for 0.2 minute, 90% to 20% solvent B for 0.2 minute, and then equilibrated for 1.6 minute before the following sample injection. The flow rate was maintained at 600 μL/min throughout the sample analysis.
The mass spectrometer was operated in profile mode at a resolution of 17500, 5 microscans, using 50 msec max injection time and an AGC target of 1×10^6, and a full mass range from 800-1850 m/z was recorded. The HCD trapping gas was optimized for maximum sensitivity for intact proteins. […]

| SMILES | Binding % |
| --- | --- |
| C=CC(=O)N1CC(N2Cc3c(F)cc(-c4cc(O)cc5ccccc45)cc3C2=O)C1 [Compound 27, 2-(1-acryloylazetidin-3-yl)-4-fluoro-6-(3-hydroxynaphthalen-1-yl)isoindolin-1-one] | +++ (+++ indicates binding activity greater than 50%) |
| C=CC(=O)N1CC(N2Cc3c(cc(-c4cc(O)cc5ccccc45)cc3C(F)(F)F)C2=O)C1 [Compound 28, 2-(1-acryloylazetidin-3-yl)-6-(3-hydroxynaphthalen-1-yl)-4-(trifluoromethyl)isoindolin-1-one] | ++ (++ indicates binding activity from 10 to 50%) |
| C=CC(=O)N1CC(N2Cc3cc(C)c(-c4cc(O)ccc4Cl)cc3C2=O)C1 [Compound 29, 2-(1-acryloylazetidin-3-yl)-6-(2-chloro-5-hydroxyphenyl)-5-methylisoindolin-1-one] | ++ (++ indicates binding activity from 10 to 50%) |
| C=CC(=O)N1CC(N2Cc3cc(C)c(-c4cc(O)cc5ccccc45)cc3C2=O)C1 [Compound 30, 2-(1-acryloylazetidin-3-yl)-6-(3-hydroxynaphthalen-1-yl)-5-methylisoindolin-1-one] | +++ (+++ indicates binding activity greater than 50%) |
| C=CC(=O)N1CC(N2CCc3ccc(-c4cc(O)cc5ccccc45)cc3CC2)C1 [Compound 31, 1-(3-(7-(3-hydroxynaphthalen-1-yl)-4,5-dihydro-1H-benzo[d]azepin-3(2H)-yl)azetidin-1-yl)prop-2-en-1-one] | + (+ indicates binding activity up to 10%) |
| C=CC(=O)N1CC(N2C(=O)c3ccc(-c4c(C)ccc5[nH]ncc45)cc3C2=O)C1 [Compound 32, 2-(1-acryloylazetidin-3-yl)-5-(5-methyl-1H-indazol-4-yl)isoindoline-1,3-dione] | + (+ indicates binding activity up to 10%) |
| C=CC(=O)N1CC(N2Cc3ccc(-c4cc(O)cc(F)c4)cc3C2=O)C1 [Compound 33, 2-(1-acryloylazetidin-3-yl)-6-(3-fluoro-5-hydroxyphenyl)isoindolin-1-one] | + (+ indicates binding activity up to 10%) |
| C=CC(=O)N1CC(N2Cc3sc(-c4cc(O)cc5ccccc45)cc3C2=O)C1 [Compound 34, 5-(1-acryloylazetidin-3-yl)-2-(3-hydroxynaphthalen-1-yl)-5,6-dihydro-4H-thieno[2,3-c]pyrrol-4-one] | +++ (+++ indicates binding activity greater than 50%) |
| C=CC(=O)N1CC(N2CCc3ccc(-c4cc(O)cc5ccccc45)cc3C2=O)C1 [Compound 35, 2-(1-acryloylazetidin-3-yl)-7-(3-hydroxynaphthalen-1-yl)-3,4-dihydroisoquinolin-1(2H)-one] | +++ (+++ indicates binding activity greater than 50%) |
| C=CC(=O)N1CC(N2CCc3ccc(-c4c(C)ccc5[nH]ncc45)cc3C2=O)C1 [Compound 36, 2-(1-acryloylazetidin-3-yl)-7-(5-methyl-1H-indazol-4-yl)-3,4-dihydroisoquinolin-1(2H)-one] | + (+ indicates binding activity up to 10%) |
| C=CC(=O)N1CC(N2CCc3ccc(-c4c(C)ccc5[nH]ncc45)cc3CC2)C1 [Compound 37, 1-(3-(7-(5-methyl-1H-indazol-4-yl)-4,5-dihydro-1H-benzo[d]azepin-3(2H)-yl)azetidin-1-yl)prop-2-en-1-one] | + (+ indicates binding activity up to 10%) |
| C=CC(=O)N1CC(N2Cc3ccc(-c4c(C)ccc5[nH]ncc45)cc3CC2=O)C1 [Compound 38, 2-(1-acryloylazetidin-3-yl)-6-(5-methyl-1H-indazol-4-yl)-1,2-dihydroisoquinolin-3(4H)-one] | ++ (++ indicates binding activity from 10 to 50%) |
| C=CC(=O)N1CC(N2Cc3ccc(-c4c(C)ccc5cn[nH]c45)cc3CC2=O)C1 [Compound 39, 2-(1-acryloylazetidin-3-yl)-6-(6-methyl-1H-indazol-7-yl)-1,2-dihydroisoquinolin-3(4H)-one] | ++ (++ indicates binding activity from 10 to 50%) |
| C=CC(=O)N1CC(N2Cc3ccc(-c4cc(O)ccc4Cl)cc3CC2=O)C1 [Compound 40, 2-(1-acryloylazetidin-3-yl)-6-(2-chloro-5-hydroxyphenyl)-1,2-dihydroisoquinolin-3(4H)-one] | +++ (+++ indicates binding activity greater than 50%) |
| C=CC(=O)N1CC(N2Cc3ccc(-c4c(O)cccc4F)cc3CC2=O)C1 [Compound 41, 2-(1-acryloylazetidin-3-yl)-6-(2-fluoro-6-hydroxyphenyl)-1,2-dihydroisoquinolin-3(4H)-one] | ++ (++ indicates binding activity from 10 to 50%) |
| C=CC(=O)N1CC(N2Cc3sc(-c4c(C)ccc5[nH]ncc45)cc3C2=O)C1 [Compound 42, 5-(1-acryloylazetidin-3-yl)-2-(5-methyl-1H-indazol-4-yl)-5,6-dihydro-4H-thieno[2,3-c]pyrrol-4-one] | ++ (++ indicates binding activity from 10 to 50%) |
| C=CC(=O)N1CC(N2Cc3c(O)cc(-c4cc(O)cc5ccccc45)cc3C2=O)C1 [Compound 43, 2-(1-acryloylazetidin-3-yl)-4-hydroxy-6-(3-hydroxynaphthalen-1-yl)isoindolin-1-one] | +++ (+++ indicates binding activity greater than 50%) |
| C=CC(=O)N1CC(N2Cc3c(O)cc(-c4c(C)ccc5[nH]ncc45)cc3C2=O)C1 [Compound 44, 2-(1-acryloylazetidin-3-yl)-4-hydroxy-6-(5-methyl-1H-indazol-4-yl)isoindolin-1-one] | ++ (++ indicates binding activity from 10 to 50%) |
| C=CC(=O)N1CC(N2Cc3ccc(Oc4ccccc4)cc3C2=O)C1 [Compound 45, 2-(1-acryloylazetidin-3-yl)-6-phenoxyisoindolin-1-one] | + (+ indicates binding activity up to 10%) |
| C=CC(=O)N1CC(N2Cc3ccc(-c4cccc5[nH]cnc45)cc3C2=O)C1 [Compound 46, 2-(1-acryloylazetidin-3-yl)-6-(1H-benzo[d]imidazol-4-yl)isoindolin-1-one] | + (+ indicates binding activity up to 10%) |
| C=CC(=O)N1CC(N2Cc3ccc(-c4ccccc4C(N)=O)cc3C2=O)C1 [Compound 47, 2-(2-(1-acryloylazetidin-3-yl)-3-oxoisoindolin-5-yl)benzamide] | + (+ indicates binding activity up to 10%) |
| C=CC(=O)N1CC(N2Cc3ccc(-c4cccc5[nH]ncc45)cc3C2=O)C1 [Compound 48, 2-(1-acryloylazetidin-3-yl)-6-(1H-indazol-4-yl)isoindolin-1-one] | + (+ indicates binding activity up to 10%) |
| C=CC(=O)N1CC(N2Cc3ccc(-c4cc(O)cc(Cl)c4)cc3C2=O)C1 [Compound 49, 2-(1-acryloylazetidin-3-yl)-6-(3-chloro-5-hydroxyphenyl)isoindolin-1-one] | ++ (++ indicates binding activity from 10 to 50%) |
| C=CC(=O)N1CC(N2Cc3ccc(-c4cccc(C(N)=O)c4)cc3C2=O)C1 [Compound 50, 3-(2-(1-acryloylazetidin-3-yl)-3-oxoisoindolin-5-yl)benzamide] | + (+ indicates binding activity up to 10%) |
| C=CC(=O)N1CC(N2Cc3ccc(-c4cc(O)cc5ccccc45)cc3C2)C1 [Compound 51, 1-(3-(5-(3-hydroxynaphthalen-1-yl)isoindolin-2-yl)azetidin-1-yl)prop-2-en-1-one] | + (+ indicates binding activity up to 10%) |
| C=CC(=O)N1CC(N2Cc3ccc(-c4ccc(NC)cc4)cc3C2=O)C1 [Compound 52, 2-(1-acryloylazetidin-3-yl)-6-(4-(methylamino)phenyl)isoindolin-1-one] | + (+ indicates binding activity up to 10%) |
